In brackets after ≈: the same amount, converted by molar mass. A value given as a limit tells only on which side of the number the result lay.

From ChEMBL document CHEMBL3351521, “Benzene-1,3-dicarboxylic acid 2,5-dimethylpyrrole derivatives as multiple inhibitors of bacterial Mur ligases (MurC-MurF)” (Bioorg Med Chem, 2014) come the findings set out here.

Assay [1] deals with UDP-N-acetylmuramate--L-alanine ligase (Escherichia coli K-12, UniProt P17952). Description: Inhibition of Escherichia coli MurC after 15 mins in presence of 0.005% Triton X-114 by Malachite green assay.
UDP-N-acetylmuramate--L-alanine ligase, sequence (P17952 whole entry): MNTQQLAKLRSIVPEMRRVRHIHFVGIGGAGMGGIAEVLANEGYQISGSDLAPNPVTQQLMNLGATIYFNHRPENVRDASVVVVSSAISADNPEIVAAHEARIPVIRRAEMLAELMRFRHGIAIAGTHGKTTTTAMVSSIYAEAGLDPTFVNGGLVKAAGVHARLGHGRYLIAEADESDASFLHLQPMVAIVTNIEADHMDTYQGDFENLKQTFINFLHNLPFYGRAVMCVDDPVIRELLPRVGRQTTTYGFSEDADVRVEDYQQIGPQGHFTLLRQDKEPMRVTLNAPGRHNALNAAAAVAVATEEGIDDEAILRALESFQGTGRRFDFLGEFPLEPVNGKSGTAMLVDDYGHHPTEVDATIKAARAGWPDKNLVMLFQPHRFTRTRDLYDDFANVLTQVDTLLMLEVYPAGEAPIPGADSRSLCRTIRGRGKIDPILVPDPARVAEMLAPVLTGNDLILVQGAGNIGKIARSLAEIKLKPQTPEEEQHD
Assay [2] deals with T1, UDP-N-acetylmuramoyl-tripeptide--D-alanyl-D-alanine ligase (Escherichia coli K-12, UniProt P11880).
T1 sequence (P11880 whole entry): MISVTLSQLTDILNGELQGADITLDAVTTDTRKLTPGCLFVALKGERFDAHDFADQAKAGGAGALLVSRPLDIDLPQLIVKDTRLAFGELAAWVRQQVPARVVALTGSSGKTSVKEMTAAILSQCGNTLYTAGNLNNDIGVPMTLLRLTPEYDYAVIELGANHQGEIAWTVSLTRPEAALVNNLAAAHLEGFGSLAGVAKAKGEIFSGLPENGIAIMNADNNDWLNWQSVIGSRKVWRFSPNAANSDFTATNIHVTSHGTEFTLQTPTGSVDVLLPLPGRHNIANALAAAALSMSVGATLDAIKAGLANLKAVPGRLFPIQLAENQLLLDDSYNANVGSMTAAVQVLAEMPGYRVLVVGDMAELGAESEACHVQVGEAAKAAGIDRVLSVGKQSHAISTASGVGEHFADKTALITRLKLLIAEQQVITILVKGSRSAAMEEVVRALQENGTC
Description: Inhibition of Escherichia coli MurF after 15 mins in presence of 0.005% Triton X-114 by Malachite green assay.

Assay [3] addresses T2, UDP-N-acetylmuramoylalanine--D-glutamate ligase (Escherichia coli K-12, UniProt P14900).
T2 sequence (P14900 whole entry): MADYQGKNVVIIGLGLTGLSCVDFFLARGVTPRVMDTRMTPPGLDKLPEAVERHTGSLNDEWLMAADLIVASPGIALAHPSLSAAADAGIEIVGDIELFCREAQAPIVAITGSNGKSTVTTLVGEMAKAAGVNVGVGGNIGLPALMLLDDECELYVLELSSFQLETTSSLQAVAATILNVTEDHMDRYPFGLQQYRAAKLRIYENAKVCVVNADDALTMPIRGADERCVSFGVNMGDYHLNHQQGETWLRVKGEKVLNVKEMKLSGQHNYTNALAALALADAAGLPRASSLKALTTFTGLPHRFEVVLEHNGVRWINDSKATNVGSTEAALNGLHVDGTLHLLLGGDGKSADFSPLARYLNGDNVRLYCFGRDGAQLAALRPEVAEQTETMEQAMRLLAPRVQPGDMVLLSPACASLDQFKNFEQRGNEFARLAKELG
Briefly: Inhibition of Escherichia coli MurD after 15 mins in presence of 0.005% Triton X-114 by Malachite green assay.

Assay [4] concerns the target T3, UDP-N-acetylmuramoyl-L-alanyl-D-glutamate--2,6-diaminopimelate ligase (Escherichia coli (strain K12), UniProt P22188).
T3 sequence (P22188 whole entry): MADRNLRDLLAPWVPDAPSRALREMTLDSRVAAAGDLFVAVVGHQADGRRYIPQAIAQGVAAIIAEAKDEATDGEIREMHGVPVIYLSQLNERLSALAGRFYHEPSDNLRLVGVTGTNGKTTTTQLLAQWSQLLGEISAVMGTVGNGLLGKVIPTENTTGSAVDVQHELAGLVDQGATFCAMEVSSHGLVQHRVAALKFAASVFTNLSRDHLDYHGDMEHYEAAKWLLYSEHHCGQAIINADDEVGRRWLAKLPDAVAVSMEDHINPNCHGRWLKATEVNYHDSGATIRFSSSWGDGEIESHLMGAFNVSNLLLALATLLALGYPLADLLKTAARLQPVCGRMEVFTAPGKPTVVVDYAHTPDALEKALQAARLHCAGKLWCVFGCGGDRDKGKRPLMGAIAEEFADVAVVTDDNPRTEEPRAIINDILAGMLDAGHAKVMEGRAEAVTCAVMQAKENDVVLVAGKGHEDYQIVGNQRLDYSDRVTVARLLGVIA
Briefly: Inhibition of Escherichia coli MurE after 15 mins in presence of 0.005% Triton X-114 by Malachite green assay.

In assay [5] the test system is Enterococcus faecalis. Description: Antimicrobial activity against Enterococcus faecalis ATCC 29212 after 16 to 20 hrs. It counts as functional.
In assay [6] the test system is Haemophilus influenzae. Description: Antimicrobial activity against Haemophilus influenzae ATCC 49766 after 20 to 24 hrs. The format is functional.
Assay [7] has as its target T4, UDP-N-acetylmuramoyl-tripeptide--D-alanyl-D-alanine ligase (Escherichia coli K-12) (UniProt P11880).
T4 sequence (whole entry): T1 sequence (P11880 whole entry)
Briefly: Inhibition of Escherichia coli MurF assessed as residual enzyme activity at 250 uM after 15 mins in presence of 0.005% Triton X-114 by Malachite green assay.

Assay [8] relates to Staphylococcus aureus. Description: microbe, parasite or virus in culture. As to conditions: ATCC 29213.
Description: Antimicrobial activity against Staphylococcus aureus ATCC 29213 after 16 to 20 hrs
Assay [9] addresses UDP-N-acetylmuramate--L-alanine ligase (Escherichia coli K-12) (UniProt P17952). Description: Inhibition of Escherichia coli MurC assessed as residual enzyme activity at 250 uM after 15 mins in presence of 0.005% Triton X-114 by Malachite green assay.
The target in assay [10] is T5, UDP-N-acetylmuramoyl-L-alanyl-D-glutamate--2,6-diaminopimelate ligase (Escherichia coli (strain K12)) (UniProt P22188).
T5 sequence (whole entry): T3 sequence (P22188 whole entry)
Briefly: Inhibition of Escherichia coli MurE assessed as residual enzyme activity at 250 uM after 15 mins in presence of 0.005% Triton X-114 by Malachite green assay.

The target of assay [11] is T6, UDP-N-acetylmuramoylalanine--D-glutamate ligase (Escherichia coli K-12) (UniProt P14900).
T6 sequence (whole entry): T2 sequence (P14900 whole entry)
Briefly: Inhibition of Escherichia coli MurD assessed as residual enzyme activity at 250 uM after 15 mins in presence of 0.005% Triton X-114 by Malachite green assay.

The target of assay [12] is T2, UDP-N-acetylmuramoylalanine--D-glutamate ligase. Description: Partial un-competitive inhibition of Escherichia coli MurD using ATP substrate by steady-state enzyme kinetics assay.
Assay [13] shares this target. Description: Partial non-competitive inhibition of Escherichia coli MurD using UMA substrate by steady-state enzyme kinetics assay.
Assay [14] shares this target. Description: Competitive inhibition of Escherichia coli MurD using D-Glu substrate by steady-state enzyme kinetics assay.

UDP-N-acetylmuramate--L-alanine ligase (Escherichia coli K-12), sequence (P17952 whole entry, looked up): as the sequence (P17952 whole entry) above

As usually defined, the IC50 is the concentration that inhibits the measured activity by half. In the case of `COc1ccc(/N=C2\NC(=O)/C(=C\c3cc(C)n(-c4cc(C(=O)O)cc(C(=O)O)c4)c3C)S2)cc1`, the IC50 came to 172 µM in assay [1], 281 µM in assay [2], 168 µM in assay [3] and 303 µM in assay [4].
On to `Cc1cc(/C=C2/SC(=S)NC2=O)c(C)n1-c1cc(C(=O)O)cc(C(=O)O)c1`, for which the MIC was 128 µg/mL (≈ 318 µM) in assay [5], 256 µg/mL (≈ 636 µM) in assay [6] and over 256 µg/mL in [8]. The results for the IC50 in [1] and in assay [3] were 133 µM and 95 µM, respectively. The Activity in assay [7] is 89%.
Take `CCc1ccccc1N1C(=O)/C(=C\c2cc(C)n(-c3cc(C(=O)O)cc(C(=O)O)c3)c2C)C(=O)NC1=S`: the Activity came to 85% in assay [9] and 68% in assay [7].
For `O=C1NC(=S)N(c2ccc(Br)cc2)C(=O)/C1=C\c1ccc2c(c1)OCO2`, the Activity in assay [10] came to 81%; in assay [11] it was 91%; in assay [9] it was 120%; in assay [7] it was 95%.
As to `Cc1cc(/C=C2/C(=O)NC(=S)N(c3ccccc3F)C2=O)c(C)n1-c1cc(C(=O)O)cc(C(=O)O)c1`, the Activity in [11] is 71%; in [9], 60%. For the same compound, the half-inhibitory concentration (IC50) in assay [2] worked out at 344 µM; in assay [4] it was 311 µM.
Regarding `Cc1ccc(/N=C2\NC(=O)/C(=C\c3cc(C)n(-c4cc(C(=O)O)cc(C(=O)O)c4)c3C)S2)cc1`, the concentration for half-maximal inhibition (IC50) is 107 µM in assay [1], 201 µM in [2], 170 µM in [3] and 245 µM in assay [4].
For `Cc1cc(/C=C2/S/C(=N/c3ccc(Br)cc3)NC2=O)c(C)n1-c1cc(C(=O)O)cc(C(=O)O)c1`, the IC50 amounted to 44 µM in [1], 102 µM in assay [2], 66 µM in assay [3] and 89 µM in [4].
On to `Cc1cc(/C=C2/S/C(=N/c3ccccc3)NC2=O)c(C)n1-c1cc(C(=O)O)cc(C(=O)O)c1`, for which the MIC in [5] is over 256 µg/mL; in assay [6], 256 µg/mL (≈ 555 µM); in [8] it was over 256 µg/mL. Further, the IC50 in assay [1] was found to be 205 µM; in [2] it was 298 µM; in [3], 206 µM; in [4], 494 µM.
`O=C1NC(=S)N(c2ccc(F)cc2)C(=O)/C1=C\c1ccc2c(c1)OCO2`: the Activity is 97% in assay [10], 102% in [11], 108% in [9] and 81% in assay [7].
Take `Cc1cc(/C=C2/C(=O)NC(=S)N(c3cccc(Cl)c3Cl)C2=O)c(C)n1-c1cc(C(=O)O)cc(C(=O)O)c1`: the Activity in assay [9] came out at 96%; in assay [7], 86%.
As for `O=C1N/C(=N\c2ccc(Br)cc2)S/C1=C/c1c[nH]c2ccccc12`, the Activity in assay [10] was found to be 90%; in [11] it was 102%; in [9] it was 87%; in assay [7] it was 75%.
Take `C/N=C1/S/C(=C/c2cc(C)n(-c3cc(C(=O)O)cc(C(=O)O)c3)c2C)C(=O)N1C`: the Activity in assay [10] came out at 97%; in [11] it was 89%; in assay [9] it was 106%; in assay [7], 95%.
With `Cc1cc(/C=C2/S/C(=N/c3cccc(Br)c3)NC2=O)c(C)n1C1CCCCC1`, the Activity in assay [10] amounted to 91%; in [11], 79%; in assay [9], 89%; in assay [7], 93%.
In the same order, the values of `CCc1ccc(N2C(=O)/C(=C\c3cc(C)n(C4CCCCC4)c3C)C(=O)NC2=S)cc1` are 97%, 100%, 92% and 75%.
For `Cc1cc(/C=C2/C(=O)NC(=S)N(c3ccccc3)C2=O)c(C)n1-c1cc(C(=O)O)cc(C(=O)O)c1`, the MIC in assay [5], in assay [6] and in assay [8] was over 256 µg/mL throughout. Further, the Activity in assay [9] was 75%; in assay [7], 84%.
Turning to GENTAMICIN, the MIC in assay [5] was determined as 8 µg/mL.
Turning to `CCc1ccc(N2C(=O)NC(=O)/C(=C/c3cc(C)n(-c4cc(C(=O)O)cc(C(=O)O)c4)c3C)C2=O)cc1`, the Activity in [11] stood at 81%; in assay [9], 74%; in assay [7] it was 75%. For the same compound, in [4], the IC50 was determined as 330 µM.
The Ki is the dissociation constant of the complex between target and ligand, obtained from inhibition or displacement. In the case of `Cc1cc(/C=C2/S/C(=N/c3ccc(Cl)cc3)NC2=O)c(C)n1-c1cc(C(=O)O)cc(C(=O)O)c1`, the Ki in assay [12] was found to be 39 µM; in assay [13], 29 µM; in [14], 21 µM. Besides, the half-inhibitory concentration (IC50) in assay [1] is 41 µM; in assay [2] it was 89 µM; in assay [3], 60 µM; in [4], 93 µM.
Turning to `Cc1cc(/C=C2/S/C(=N/c3ccc(F)cc3)NC2=O)c(C)n1C`, the Activity in assay [10] worked out at 76%; in assay [11], 78%; in [9] it was 82%; in assay [7], 67%.
On to `O=C1NC(=S)N(c2ccc(Cl)cc2)C(=O)/C1=C\c1cc2ccccc2[nH]1`, for which the values for the Activity in [11], in [9] and in assay [7] were 71%, 77% and 20%, respectively. Moreover, the IC50 in assay [4] worked out at 44 µM.
As for `Cc1cc(/C=C2/C(=O)NC(=S)N(c3cccc(Cl)c3)C2=O)c(C)n1-c1cc(C(=O)O)cc(C(=O)O)c1`, the results for the Activity in [9] and in [7] were 80% and 78%, respectively.
For `Cc1cc(/C=C2/C(=O)NC(=O)N(c3ccc(Br)cc3)C2=O)c(C)n1-c1cc(C(=O)O)cc(C(=O)O)c1`, the Activity in assay [11] was determined as 71%; in [9], 62%; in [7] it was 60%. The concentration for half-maximal inhibition (IC50) in [4] was found to be 211 µM.
In assay [6], `CO/N=C(\C(=O)N[C@@H]1C(=O)N2C(C(=O)O)=C(COC(N)=O)CS[C@H]12)c1ccco1` [CEFUROXIME] registered an MIC of 0.5 µg/mL (≈ 1.18 µM).
